Results reported in publication PMC11071649, “Synthesis and Selective Anticancer Activity Evaluation of 2-phenylacrylonitrile Derivatives as Tubulin Inhibitors” (Current Medicinal Chemistry, 2024).
Where two headings read alike, the source gives them in different places.

Legend:
[1] = system: Raji B lymphoblastoid cell; assay: MTT anti-proliferative assay, Raji; format: cell-based, human
Procedure, shortened: (§1)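 Anti-proliferative effect is measured with the MTT assay, which reports inhibition of net cell growth. Cells come from ATCC, are maintained in DMEM with FBS and are seeded into 96-well plates before treatment.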

[2] = system: MCF-10A normal breast cell; assay: MTT assay, MCF-10A normal cells; format: cell-based, human; settings: 48 h
Procedure, shortened: as §1

AGS gastric cancer cell = assay: MTT anti-proliferative assay, AGS; format: cell-based, human; settings: for IC50: MTT, 48 h
Procedure, shortened: as §1

MCF-7 breast cancer cell = assay: MTT anti-proliferative assay, MCF-7; format: cell-based, human; settings: MTT, 48 h
Procedure, shortened: as §1

[3] = system: HeLa cervical cancer cell; assay: MTT anti-proliferative assay, HeLa; format: cell-based, human; settings: for IC50: MTT, 48 h
Procedure, shortened: as §1

[4] = system: HCT116 colectal cancer cell; assay: MTT anti-proliferative assay, HCT116; format: cell-based, human; settings: for IC50: MTT, 48 h
Procedure, shortened: as §1

A549 lung cancer cell = assay: MTT anti-proliferative assay, A549; format: cell-based, human; settings: MTT, 48 h
Procedure, shortened: as §1

[5] = system: diffuse large B-cell lymphoma SU-DHL-10 cell; assay: MTT anti-proliferative assay, SU-DHL-10; format: cell-based, human
Procedure, shortened: as §1

[6] = system: SGC-7901 early differentiation gastric cancer cell; assay: MTT anti-proliferative assay, SGC-7901; format: cell-based, human; settings: for IC50: MTT, 48 h
Procedure, shortened: as §1

[7] = system: BEL-7402 liver cancer cell; assay: MTT anti-proliferative assay, BEL-7402; format: cell-based, human; settings: for IC50: MTT, 48 h
Procedure, shortened: as §1

HepG2 hepatoma cell = assay: MTT anti-proliferative assay, HepG2; format: cell-based, human; settings: for IC50: MTT, 48 h, read-out: IC50 HepG-2
Procedure, shortened: as §1

L-02 normal liver cell = assay: MTT assay, L-02 normal cells; format: cell-based, human; settings: 48 h
Procedure, shortened: as §1

[8] = system: MGC-803 late stage differentiation gastric cancer cell; assay: MTT anti-proliferative assay, MGC-803; format: cell-based, human; settings: for IC50: MTT, 48 h
Procedure, shortened: as §1

[9] = Homo sapiens, Raji, MTT, 48 h, read-out: IC50 Raji
[10] = Homo sapiens, SU-DHL10, MTT, 48 h, read-out: IC50 SU-DHL-10
[11] = MTT, 48 h, read-out: IC50 SU-DHL-10

| Structure (SMILES) | IC50 [1, 9] | IC50 (AGS gastric cancer cell; Homo sapiens) | IC50 (MCF-7 breast cancer cell; Homo sapiens, MCF7) | IC50 ([3]; Homo sapiens, HeLa) | IC50 ([4]; Homo sapiens, HCT-116) | IC50 (A549 lung cancer cell; Homo sapiens, A549) | IC50 ([1]; MTT, 48 h, read-out: IC50 Raji) | IC50 (AGS gastric cancer cell) | IC50 (MCF-7 breast cancer cell) | IC50 [3] | IC50 ([4]; read-out: IC50 HCT-116) | IC50 (A549 lung cancer cell) | IC50 [5, 11] | IC50 [6] | IC50 [7] | IC50 (HepG2 hepatoma cell) | IC50 [8] | IC50 ([2]; Homo sapiens, MCF-10A) | IC50 [2] | IC50 (L-02 normal liver cell) | further results |
| --- | --- | --- | --- | --- | --- | --- | --- | --- | --- | --- | --- | --- | --- | --- | --- | --- | --- | --- | --- | --- | --- |
| N#C/C(=C\c1ccc(Br)cc1)c1cccc(OC(F)(F)F)c1 [Compound 1b2d] |  |  |  |  |  |  | 16.3 ± 6.1 µM | 13.9 ± 4.2 µM | > 100 µM | 66.8 ± 9.8 µM | 15.1 ± 2.9 µM | > 100 µM | 35.6 ± 0.9 µM | 21.9 ± 3.3 µM | 14.6 ± 4.6 µM | 34.9 ± 3.2 µM | 10.1 ± 0.9 µM |  | 34.1 ± 3.6 µM | 50.4 ± 0.8 µM | SI (selectivity index), IC50 (L-02)/IC50 (Raji) [1]: > 3.0; SI (selectivity index), IC50 (L-02)/IC50 (AGS) (AGS gastric cancer cell): > 3.5; SI (selectivity index), IC50 (L-02)/IC50 (SU-DHL-10) [5]: > 1.4; SI (selectivity index), IC50 (L-02)/IC50 (SGC-7901) [6]: > 2.3; SI (selectivity index), IC50 (L-02)/IC50 (BEL-7402) [7]: > 3.4; SI (selectivity index), IC50 (L-02)/IC50 (HepG-2) (HepG2 hepatoma cell): > 1.4; SI (selectivity index), IC50 (L-02)/IC50 (MGC-803) [8]: > 4.9 |
| N#C/C(=C\c1ccc(Cl)cc1)c1cccc(OC(F)(F)F)c1 [Compound 1b2c] |  |  |  |  |  |  | > 100 µM | > 100 µM | > 100 µM | > 100 µM | > 100 µM | > 100 µM | > 100 µM | > 100 µM | > 100 µM | > 100 µM | > 100 µM |  | > 100 µM | > 100 µM |  |
| CCCCCOc1ccc(/C=C(\C#N)c2ccc(OC(F)(F)F)cc2)cc1 [Compound 1a2o] |  |  |  |  |  |  | > 100 µM | > 100 µM | > 100 µM | > 100 µM | > 100 µM | > 100 µM | > 100 µM | > 100 µM | > 100 µM | > 100 µM | > 100 µM |  | > 100 µM | > 100 µM |  |
| N#C/C(=C\c1ccc(Br)cc1)c1ccc(OC(F)(F)F)cc1 [Compound 1a2d] |  |  |  |  |  |  | 64.9 ± 1.5 µM | 19.6 ± 2.9 µM | > 100 µM | 87.3 ± 4.1 µM | 25.4 ± 6.8 µM | > 100 µM | 73.5 ± 17.3 µM | > 100 µM | > 100 µM | 24.3 ± 3.4 µM | > 100 µM |  | > 100 µM | > 100 µM | SI (selectivity index), IC50 (L-02)/IC50 (Raji) [1]: > 1.5; SI (selectivity index), IC50 (L-02)/IC50 (AGS) (AGS gastric cancer cell): > 5.0; SI (selectivity index), IC50 (L-02)/IC50 (HeLa) [3]: > 1.1; SI (selectivity index), IC50 (L-02)/IC50 (HCT-116) [4]: > 3.9; SI (selectivity index), IC50 (L-02)/IC50 (SU-DHL-10) [5]: > 1.3; SI (selectivity index), IC50 (L-02)/IC50 (HepG-2) (HepG2 hepatoma cell): > 4.1 |

The next lines start with results.

| IC50 [1, 9] | IC50 (AGS gastric cancer cell; Homo sapiens) | IC50 (MCF-7 breast cancer cell; Homo sapiens, MCF7) | IC50 ([3]; Homo sapiens, HeLa) | IC50 ([4]; Homo sapiens, HCT-116) | IC50 (A549 lung cancer cell; Homo sapiens, A549) | IC50 ([1]; MTT, 48 h, read-out: IC50 Raji) | IC50 (AGS gastric cancer cell) | IC50 (MCF-7 breast cancer cell) | IC50 [3] | IC50 ([4]; read-out: IC50 HCT-116) | IC50 (A549 lung cancer cell) | IC50 [5, 11] | IC50 [6] | IC50 [7] | IC50 (HepG2 hepatoma cell) | IC50 [8] | Structure (SMILES) | IC50 ([2]; Homo sapiens, MCF-10A) | IC50 [2] | IC50 (L-02 normal liver cell) | further results |
| --- | --- | --- | --- | --- | --- | --- | --- | --- | --- | --- | --- | --- | --- | --- | --- | --- | --- | --- | --- | --- | --- |
| > 100 µM | > 100 µM | > 100 µM | > 100 µM | > 100 µM | > 100 µM |  |  |  |  |  |  |  |  |  |  |  | COc1cc(-n2cc(/C=C(\C#N)c3ccc(OC(F)(F)F)cc3)nn2)cc(OC)c1OC [Compound 7c] | > 100 µM |  |  | IC50 [5, 10]: > 100 µM; IC50 ([6]; Homo sapiens, SGC-7901): > 100 µM; IC50 ([7]; Homo sapiens, Bel-7402): > 100 µM; melting point: 170 to 172 °C; IC50 (HepG2 hepatoma cell; Homo sapiens, HepG2): > 100 µM; IC50 (L-02 normal liver cell; Homo sapiens): > 100 µM; IC50 ([8]; Homo sapiens, MGC-803): > 100 µM |
| 1.2 ± 0.5 µM | > 100 µM | 17.6 ± 6.5 µM | > 100 µM | 56.3 ± 8.4 µM | > 100 µM |  |  |  |  |  |  |  |  |  |  |  | COc1ccc(C(=O)/C=C/c2ccc(/C=C(\C#N)c3ccc(OC(F)(F)F)cc3)cc2)cc1 [Compound 8a] | 11.3 ± 2.3 µM |  |  | IC50 ([1]; Homo sapiens, Raji, read-out: IC50 Raji cells): ~1 µM; IC50 [5, 10]: 1.3 ± 0.1 µM; IC50 ([5]; Homo sapiens, SU-DHL10, read-out: IC50 SU-DHL-10 cells): ~1 µM; IC50 ([6]; Homo sapiens, SGC-7901): > 100 µM; IC50 ([7]; Homo sapiens, Bel-7402): 13.2 ± 2.7 µM; melting point: 148 to 150 °C; IC50 (HepG2 hepatoma cell; Homo sapiens, HepG2): > 100 µM; IC50 (L-02 normal liver cell; Homo sapiens): > 100 µM; IC50 ([8]; Homo sapiens, MGC-803): > 100 µM |
| > 100 µM | > 100 µM | > 100 µM | > 100 µM | > 100 µM | > 100 µM |  |  |  |  |  |  |  |  |  |  |  | N#C/C(=C\c1ccc(/C=C/C(=O)c2ccccc2)cc1)c1ccc(OC(F)(F)F)cc1 [Compound 8b] | > 100 µM |  |  | IC50 [5, 10]: > 100 µM; IC50 ([6]; Homo sapiens, SGC-7901): > 100 µM; IC50 ([7]; Homo sapiens, Bel-7402): > 100 µM; melting point: 155 to 157 °C; IC50 (HepG2 hepatoma cell; Homo sapiens, HepG2): > 100 µM; IC50 (L-02 normal liver cell; Homo sapiens): > 100 µM; IC50 ([8]; Homo sapiens, MGC-803): > 100 µM |
